Experimental data: patent US11419869B2, “Dosage forms and regimens for amino acid compounds” (Pliant Therapeutics, Inc., priority 2019, dated 2022)

The molecules below were run against recombinant human integrin αvβ6 (Homo sapiens (Human), UniProt P06756+P18564) (assay: Solid Phase Integrin αvβ6 Binding Assay (Examples B1, B2)). Details: TGFβ1 LAP ligand, values given in four ranges, read-out: αvβ6 Inhibition IC50 (nM)-range.
Chain of recombinant human integrin αvβ6 (P06756 31-992): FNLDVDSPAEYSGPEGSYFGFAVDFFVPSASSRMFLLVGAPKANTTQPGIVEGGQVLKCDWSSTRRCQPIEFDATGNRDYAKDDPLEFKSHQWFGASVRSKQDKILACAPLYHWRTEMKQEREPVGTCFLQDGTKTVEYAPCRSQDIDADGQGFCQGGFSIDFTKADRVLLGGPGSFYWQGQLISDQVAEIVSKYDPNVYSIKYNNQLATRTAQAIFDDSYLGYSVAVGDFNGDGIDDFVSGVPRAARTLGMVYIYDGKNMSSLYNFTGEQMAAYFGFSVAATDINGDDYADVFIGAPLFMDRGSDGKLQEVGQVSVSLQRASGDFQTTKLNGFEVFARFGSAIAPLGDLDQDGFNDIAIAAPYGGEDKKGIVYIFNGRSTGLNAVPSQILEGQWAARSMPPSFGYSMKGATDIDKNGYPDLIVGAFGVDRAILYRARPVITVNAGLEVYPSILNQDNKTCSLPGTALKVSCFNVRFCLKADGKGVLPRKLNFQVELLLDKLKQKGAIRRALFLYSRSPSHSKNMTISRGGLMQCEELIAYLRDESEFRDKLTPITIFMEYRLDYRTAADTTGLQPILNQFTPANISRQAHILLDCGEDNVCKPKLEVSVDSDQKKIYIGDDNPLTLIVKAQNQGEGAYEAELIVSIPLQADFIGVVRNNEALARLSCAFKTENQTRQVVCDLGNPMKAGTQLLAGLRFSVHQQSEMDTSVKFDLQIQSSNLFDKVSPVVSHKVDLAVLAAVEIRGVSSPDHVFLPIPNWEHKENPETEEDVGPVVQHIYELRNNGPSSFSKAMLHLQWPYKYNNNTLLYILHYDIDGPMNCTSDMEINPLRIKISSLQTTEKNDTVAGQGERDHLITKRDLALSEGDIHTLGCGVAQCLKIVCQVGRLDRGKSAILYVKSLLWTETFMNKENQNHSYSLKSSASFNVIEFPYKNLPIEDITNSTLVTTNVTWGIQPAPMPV
Chain of recombinant human integrin αvβ6 (P18564 22-707): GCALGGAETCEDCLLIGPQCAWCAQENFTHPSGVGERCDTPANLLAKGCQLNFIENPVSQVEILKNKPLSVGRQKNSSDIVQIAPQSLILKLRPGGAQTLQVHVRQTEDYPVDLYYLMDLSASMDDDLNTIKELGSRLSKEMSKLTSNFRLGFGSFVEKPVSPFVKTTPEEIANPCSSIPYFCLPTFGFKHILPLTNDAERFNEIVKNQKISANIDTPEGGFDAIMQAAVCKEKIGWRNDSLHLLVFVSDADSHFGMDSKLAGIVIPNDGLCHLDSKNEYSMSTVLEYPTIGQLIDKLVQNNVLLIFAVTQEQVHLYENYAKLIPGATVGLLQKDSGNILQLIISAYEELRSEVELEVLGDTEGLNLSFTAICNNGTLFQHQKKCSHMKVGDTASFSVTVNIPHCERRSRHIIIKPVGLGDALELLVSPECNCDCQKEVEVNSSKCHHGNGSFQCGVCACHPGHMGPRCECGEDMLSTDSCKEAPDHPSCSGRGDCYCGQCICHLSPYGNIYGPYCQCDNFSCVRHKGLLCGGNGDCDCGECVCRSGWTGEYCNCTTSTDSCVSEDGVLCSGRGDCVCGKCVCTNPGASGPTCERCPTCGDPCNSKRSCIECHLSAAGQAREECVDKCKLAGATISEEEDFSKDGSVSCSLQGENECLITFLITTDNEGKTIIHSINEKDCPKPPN
Experimental: (§1) Microplates were coated with recombinant human integrin αvβ6 (2 μg/mL) in PBS (100 μL/well 25° C., overnight). The coating solution was removed, washed with wash buffer (0.05% Tween 20; 0.5 mM MnCl2; in 1×TBS). The plate was blocked with 200 μL/well of Block Buffer (1% BSA; 5% sucrose; 0.5 mM MnCl2; in 1×TBS) at 37° C. for 2 h. Dilutions of testing compounds and recombinant TGFβ1 LAP (0.67 μg/mL) in binding buffer (0.05% BSA; 2.5% sucrose; 0.5 mM MnCl2; in 1×TBS) were added. The plate was incubated for 2 hours at 25° C., washed, and incubated for 1 hour with Biotin-Anti-hLAP. Bound antibody was detected by peroxidase-conjugated streptavidin. The IC50 values for testing compounds were calculated by four-parameter logistic regression.
The compounds tested were compound samples prepared according to procedures described in the Synthetic Examples section, with the stereochemical purity as indicated in the Examples.
as §1, with “A third series of exemplary compounds was selected for testing in the solid phase integrin αvβ6 binding assay. The compounds tested were compound samples prepared according to procedures described in the Synthetic Examples section, with the stereochemical purity as indicated in the Examples. As in Example B1, microplates were coated” for “Microplates were coated”, “calculated by a four-parameter logistic” for “calculated by four-parameter logistic”
`COCCN(CCCCc1ccc2c(n1)NCCC2)CC[C@H](Nc1ncnc2cc(F)ccc12)C(=O)O` [Compound 7, (S)-2-((7-fluoroquinazolin-4-yl)amino)-4-((2-methoxyethyl) (4-(5,6,7,8-tetrahydro-1,8-naphthyridin-2-yl)butyl)amino) butanoic acid] was tested, and the IC50 was less than 50 nM.
`O=C(O)[C@H](CCN(CCCCc1ccc2c(n1)NCCC2)C1CC(F)(F)C1)Nc1ncnc2ccccc12` [Compound 9, (S)-4-((3,3-difluorocyclobutyl) (4-(5,6,7,8-tetrahydro-1,8-naphthyridin-2-yl)butyl)amino)-2-(quinazolin-4-ylamino) butanoic acid] gave an IC50 greater than 1000 nM.
With `COCCN(CCCCc1ccc2c(n1)NCCC2)CC[C@H](Nc1nc(C)nc2ccccc12)C(=O)O` [Compound 10, (S)-4-((2-methoxyethyl) (4-(5,6,7,8-tetrahydro-1,8-naphthyridin-2-yl)butyl)amino)-2-((2-methylquinazolin-4-yl)amino) butanoic acid] the IC50 was less than 50 nM.
With `COCCN(CCCCc1ccc2c(n1)NCCC2)CC[C@H](Nc1ncnc2ncccc12)C(=O)O` [Compound 11, (S)-4-((2-methoxyethyl) (4-(5,6,7,8-tetrahydro-1,8-naphthyridin-2-yl)butyl)amino)-2-(pyrido[2,3-d]pyrimidin-4-ylamino) butanoic acid] the IC50 was less than 50 nM.
`COCCN(CCCCc1ccc2c(n1)NCCC2)CC[C@H](Nc1nc(C)nc2cc(F)ccc12)C(=O)O` [Compound 12, (S)-2-((7-fluoro-2-methylquinazolin-4-yl)amino)-4-((2-methoxyethyl) (4-(5,6,7,8-tetrahydro-1,8-naphthyridin-2-yl)butyl)amino) butanoic acid] was tested, and the IC50 was less than 50 nM.
Molecule `COCCN(CCCCc1ccc2c(n1)NCCC2)CC[C@H](Nc1nc(C(F)(F)F)nc2ccccc12)C(=O)O` [Compound 14, (S)-4-((2-methoxyethyl) (4-(5,6,7,8-tetrahydro-1,8-naphthyridin-2-yl)butyl)amino)-2-((2-(trifluoromethyl)quinazolin-4-yl)amino) butanoic acid] has an IC50 of less than 50 nM.
Molecule `COCCN(CCCCc1ccc2c(n1)NCCC2)CC[C@H](Nc1ncnc2c(C(F)(F)F)cccc12)C(=O)O` [Compound 15, (S)-4-((2-methoxyethyl) (4-(5,6,7,8-tetrahydro-1,8-naphthyridin-2-yl)butyl)amino)-2-((8-(trifluoromethyl)quinazolin-4-yl)amino) butanoic acid] has an IC50 of less than 50 nM.
`COCCN(CCCCc1ccc2c(n1)NCCC2)CC[C@H](Nc1ncnc2cccnc12)C(=O)O` [Compound 16, (S)-4-((2-methoxyethyl) (4-(5,6,7,8-tetrahydro-1,8-naphthyridin-2-yl)butyl)amino)-2-(pyrido[3,2-d]pyrimidin-4-ylamino) butanoic acid] gave an IC50 of less than 50 nM.
In the case of `COCCN(CCCCc1ccc2c(n1)NCCC2)CC[C@H](Nc1ncnc2cnccc12)C(=O)O` [Compound 17, (S)-4-((2-methoxyethyl) (4-(5,6,7,8-tetrahydro-1,8-naphthyridin-2-yl)butyl)amino)-2-(pyrido[3,4-d]pyrimidin-4-ylamino) butanoic acid], the IC50 was less than 50 nM.
In the case of `COCCN(CCCCc1ccc2c(n1)NCCC2)CC[C@H](Nc1ncnc2cccc(F)c12)C(=O)O` [Compound 18, (S)-2-((5-fluoroquinazolin-4-yl)amino)-4-((2-methoxyethyl) (4-(5,6,7,8-tetrahydro-1,8-naphthyridin-2-yl)butyl)amino) butanoic acid], the IC50 was less than 50 nM.
In the case of `COCCN(CCCCc1ccc2c(n1)NCCC2)CC[C@H](Nc1ncnc2ccc(F)cc12)C(=O)O` [Compound 19, (S)-2-((6-fluoroquinazolin-4-yl)amino)-4-((2-methoxyethyl) (4-(5,6,7,8-tetrahydro-1,8-naphthyridin-2-yl)butyl)amino) butanoic acid], the IC50 was less than 50 nM.
In the case of `COCCN(CCCCc1ccc2c(n1)NCCC2)CC[C@H](Nc1ncnc2c(F)cccc12)C(=O)O` [Compound 20, (S)-2-((8-fluoroquinazolin-4-yl)amino)-4-((2-methoxyethyl) (4-(5,6,7,8-tetrahydro-1,8-naphthyridin-2-yl)butyl)amino) butanoic acid], the IC50 was less than 50 nM.
Work on `COCCN(CCCCc1ccc2c(n1)NCCC2)CC[C@H](Nc1ncnc2cc(F)c(F)cc12)C(=O)O` [Compound 21, (S)-2-((6,7-difluoroquinazolin-4-yl)amino)-4-((2-methoxyethyl) (4-(5,6,7,8-tetrahydro-1,8-naphthyridin-2-yl)butyl)amino) butanoic acid] yielded an IC50 of less than 50 nM.
Molecule `COCCN(CCCCc1ccc2c(n1)NCCC2)CC[C@H](Nc1cc(C(F)(F)F)nc(C)n1)C(=O)O` [Compound 22, (S)-4-((2-methoxyethyl) (4-(5,6,7,8-tetrahydro-1,8-naphthyridin-2-yl)butyl)amino)-2-((2-methyl-6-(trifluoromethyl)pyrimidin-4-yl)amino) butanoic acid] has an IC50 of less than 50 nM.
In the case of `COCCN(CCCCc1ccc2c(n1)NCCC2)CC[C@H](Nc1cc(C(F)F)ncn1)C(=O)O` [Compound 23, (S)-2-((6-(difluoromethyl)pyrimidin-4-yl)amino)-4-((2-methoxyethyl) (4-(5,6,7,8-tetrahydro-1,8-naphthyridin-2-yl)butyl)amino) butanoic acid], the IC50 was less than 50 nM.
Work on `COCCN(CCCCc1ccc2c(n1)NCCC2)CC[C@H](Nc1ccnc(C(F)(F)F)n1)C(=O)O` [Compound 24, (S)-4-((2-methoxyethyl) (4-(5,6,7,8-tetrahydro-1,8-naphthyridin-2-yl)butyl)amino)-2-((2-(trifluoromethyl)pyrimidin-4-yl)amino) butanoic acid] yielded an IC50 of less than 50 nM.
For `CO[C@@H](C)CN(CCCCc1ccc2c(n1)NCCC2)CC[C@H](Nc1ncnc2ccccc12)C(=O)O` [Compound 25, (S)-4-(((S)-2-methoxypropyl) (4-(5,6,7,8-tetrahydro-1,8-naphthyridin-2-yl)butyl)amino)-2-(quinazolin-4-ylamino) butanoic acid], the IC50 was less than 50 nM.
`COCCN(CCCCc1ccc2c(n1)NCCC2)CC[C@H](Nc1cc(C)nc(C(F)(F)F)n1)C(=O)O` [Compound 26, (S)-4-((2-methoxyethyl) (4-(5,6,7,8-tetrahydro-1,8-naphthyridin-2-yl)butyl)amino)-2-((6-methyl-2-(trifluoromethyl)pyrimidin-4-yl)amino) butanoic acid] gave an IC50 of less than 50 nM.
In the case of `CS(=O)(=O)CCN(CCCCc1ccc2c(n1)NCCC2)CC[C@H](Nc1ncnc2ccccc12)C(=O)O` [Compound 27, (S)-4-((2-(methylsufonyl)ethyl) (4-(5,6,7,8-tetrahydro-1,8-naphthyridin-2-yl)butyl)amino)-2-(quinazolin-4-ylamino) butanoic acid], the IC50 was less than 50 nM.
Work on `O=C(O)[C@H](CCN(CCCCc1ccc2c(n1)NCCC2)CCOc1ccccc1)Nc1ncnc2ccccc12` [Compound 28, (S)-4-((2-phenoxyethyl) (4-(5,6,7,8-tetrahydro-1,8-naphthyridin-2-yl)butyl)amino)-2-(quinazolin-4-ylamino) butanoic acid] yielded an IC50 of less than 50 nM.
In the case of `O=C(O)[C@H](CCN(CCCCc1ccc2c(n1)NCCC2)CCC(F)F)Nc1ncnc2ccccc12` [Compound 29, (S)-4-((3,3-difluoropropyl) (4-(5,6,7,8-tetrahydro-1,8-naphthyridin-2-yl)butyl)amino)-2-(quinazolin-4-ylamino) butanoic acid], the IC50 was less than 50 nM.
Molecule `O=C(O)[C@H](CCN(CCCF)CCCCc1ccc2c(n1)NCCC2)Nc1ncnc2ccccc12` [Compound 30, (S)-4-((3-fluoropropyl) (4-(5,6,7,8-tetrahydro-1,8-naphthyridin-2-yl)butyl)amino)-2-(quinazolin-4-ylamino) butanoic acid] has an IC50 of less than 50 nM.
With `COC[C@@H](F)CN(CCCCc1ccc2c(n1)NCCC2)CC[C@H](Nc1ncnc2ccccc12)C(=O)O` [Compound 31, (S)-4-(((S)-2-fluoro-3-methoxypropyl) (4-(5,6,7,8-tetrahydro-1,8-naphthyridin-2-yl)butyl)amino)-2-(quinazolin-4-ylamino) butanoic acid] the IC50 was less than 50 nM.
`COC[C@@H](F)CN(CCCCc1ccc2c(n1)NCCC2)CC[C@H](Nc1nc(C)nc2cc(F)ccc12)C(=O)O` [Compound 32, (S)-2-((7-fluoro-2-methylquinazolin-4-yl)amino)-4-(((S)-2-fluoro-3-methoxypropyl) (4-(5,6,7,8-tetrahydro-1,8-naphthyridin-2-yl)butyl)amino) butanoic acid] showed an IC50 of less than 50 nM.
For `Cc1nc(N[C@@H](CCN(CCCCc2ccc3c(n2)NCCC3)CC2CC(F)(F)C2)C(=O)O)c2ccc(F)cc2n1` [Compound 33, (S)-4-(((3,3-difluorocyclobutyl)methyl) (4-(5,6,7,8-tetrahydro-1,8-naphthyridin-2-yl)butyl)amino)-2-((7-fluoro-2-methylquinazolin-4-yl)amino) butanoic acid], the IC50 was less than 50 nM.
